# Molecular target: T1, IDO1 (Homo sapiens, UniProt P14902)
# T1 construct: endogenous in cells; host or cells: HeLa cells (ATCC), IFNgamma-induced
# Test: IDO1 cell-based assay (HeLa cells, IFNgamma-induced, N-formylkynurenine/L-tryptophan by RFMS)
# Conditions: 10 ng/mL IFNgamma, 24 hours
# How it was run: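 HeLa cells stimulated with 10 ng/mL IFNgamma and exposed to compound (0.5% DMSO final) for 24 h at 37 °C. Conditioned media deproteinized, then N-formylkynurenine and L-tryptophan quantified by RapidFire MS with deuterated tryptophan internal standard; IC50 by curve fitting. Viability checked by CellTiter-Glo.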
# T1 sequence (P14902 whole entry): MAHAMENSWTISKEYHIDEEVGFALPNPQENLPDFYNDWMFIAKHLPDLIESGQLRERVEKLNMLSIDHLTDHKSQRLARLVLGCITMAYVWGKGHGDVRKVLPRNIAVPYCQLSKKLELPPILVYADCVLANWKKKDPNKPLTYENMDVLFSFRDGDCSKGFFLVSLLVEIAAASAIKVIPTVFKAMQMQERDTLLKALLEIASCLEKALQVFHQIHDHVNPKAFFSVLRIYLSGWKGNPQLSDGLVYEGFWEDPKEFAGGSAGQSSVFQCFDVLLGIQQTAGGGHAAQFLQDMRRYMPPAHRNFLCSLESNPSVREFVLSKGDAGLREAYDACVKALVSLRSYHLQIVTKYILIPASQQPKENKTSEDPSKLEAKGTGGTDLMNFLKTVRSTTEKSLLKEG
row,SMILES,IC50 [nM]
1,"CCC(NC(=O)c1ccc(Cl)cc1)[C@H]1[C@@H]2C[C@@H](n3cc(C(N)=O)nn3)C[C@@H]21 (stereo partly drawn) [Compound 95, 1-((1R,3s,5S,6r)-6-(1-(4-chlorobenzamido)propyl)bicyclo[3.1.0]hexan-3-yl)-1H-1,2,3-triazole-4-carboxamide]",> 5000
2,"CCC(NC(=O)c1ccc(Cl)cc1)C1C2CC(OCC3CCOCC3)CC21 [Compound 96, 4-chloro-N-(1-((1R,3s,5S,6r)-3-((tetrahydro-2H-pyran-4-yl)methoxy)bicyclo[3.1.0]hexan-6-yl)propyl)benzamide]",< 200
3,"CCC(NC(=O)c1ccc(Cl)cc1)[C@H]1[C@@H]2C[C@@H](n3cc(C(=O)N4CCCC4)nn3)C[C@@H]21 (stereo partly drawn) [Compound 98, 4-chloro-N-(1-((1R,3s,5S,6r)-3-(4-(pyrrolidine-1-carbonyl)-1H-1,2,3-triazol-1-yl)bicyclo[3.1.0]hexan-6-yl)propyl)benzamide]",< 200
4,"CCC(NC(=O)c1ccc(Cl)cc1)[C@H]1[C@@H]2C[C@@H](n3nnc4ccccc43)C[C@@H]21 (stereo partly drawn) [Compound 99, N-(1-((1R,3s,5S,6r)-3-(1H-benzo[d][1,2,3]triazol-1-yl)bicyclo[3.1.0]hexan-6-yl)propyl)-4-chlorobenzamide]",< 200
5,"CCC(NC(=O)c1ccc(Cl)cc1)[C@H]1[C@@H]2C[C@@H](n3nc4ccccc4n3)C[C@@H]21 (stereo partly drawn) [Compound 100, N-(1-((1R,3s,5S,6r)-3-(2H-benzo[d][1,2,3]triazol-2-yl)bicyclo[3.1.0]hexan-6-yl)propyl)-4-chlorobenzamide]",< 200
6,"CCC(NC(=O)c1ccc(Cl)cc1)[C@H]1[C@@H]2C[C@@H](OC3CCOCC3)C[C@@H]21 (stereo partly drawn) [Compound 101, 4-chloro-N-(1-((1R,3s,5S,6r)-3-((tetrahydro-2H-pyran-4-yl)oxy)bicyclo[3.1.0]hexan-6-yl)propyl)benzamide]",200 to 2000
7,"CC[C@H](NC(=O)c1ccc(Cl)cc1)[C@H]1[C@@H]2C[C@@H](Oc3cnnc4ccccc34)C[C@@H]21 [Compound 103, 4-chloro-N-((S)-1-((1R,3R,5S,6r)-3-(cinnolin-4-yloxy)bicyclo[3.1.0]hexan-6-yl)propyl)benzamide]",< 200
8,"CC[C@@H](NC(=O)c1ccc(Cl)cc1)[C@H]1[C@@H]2C[C@@H](Oc3cnnc4ccccc34)C[C@@H]21 [Compound 104, 4-chloro-N-((R)-1-((1R,3S,5S,6r)-3-(cinnolin-4-yloxy)bicyclo[3.1.0]hexan-6-yl)propyl)benzamide]",< 200
9,"CC(NC(=O)c1ccc(C#N)cc1)C1[C@H]2CC(O)C[C@@H]12 (stereo partly drawn) [Compound 105, 4-cyano-N-(1-((1R,3r,5S,6r)-3-hydroxybicyclo[3.1.0]hexan-6-yl)ethyl)benzamide]",> 5000
10,"CC(NC(=O)c1ccc(C#N)cc1)C1[C@H]2CC(O)C[C@@H]12 (stereo partly drawn) [Compound 106, 4-cyano-N-(1-((1R,3s,5S,6r)-3-hydroxybicyclo[3.1.0]hexan-6-yl)ethyl)benzamide]",> 5000
11,"CC(NC(=O)c1ccc(C#N)cc1)C1[C@H]2CC(Oc3ncnc4ccc(F)cc34)C[C@@H]12 (stereo partly drawn) [Compound 107, 4-cyano-N-(1-((1R,3s,5S,6r)-3-((6-fluoroquinazolin-4-yl)oxy)bicyclo[3.1.0]hexan-6-yl)ethyl)benzamide]",< 200
12,"CC(NC(=O)c1ccc(C#N)cc1)[C@H]1[C@@H]2C[C@@H](n3cnc4ccc(F)cc4c3=O)C[C@@H]21 (stereo partly drawn) [Compound 108, 4-cyano-N-(1-((1R,3s,5S,6r)-3-(6-fluoro-4-oxoquinazolin-3(4H)-yl)bicyclo[3.1.0]hexan-6-yl)ethyl)benzamide]",< 200
13,"O=C(Cc1ccc(Cl)cc1)NC1C2CN(c3ccnc4ccc(F)cc34)CC21 (stereo not drawn) [Compound 109, 2-(4-Chlorophenyl)-N-(3-(6-fluoroquinolin-4-yl)-3-azabicyclo[3.1.0]hexan-6-yl)acetamide]",> 5000
14,"O=C(NC1C2CN(c3ccnc4ccc(F)cc34)CC21)C(CO)c1ccccc1 (stereo not drawn) [Compound 110, N-(3-(6-fluoroquinolin-4-yl)-3-azabicyclo[3.1.0]hexan-6-yl)-3-hydroxy-2-phenylpropanamide]",> 5000
15,"O=C(NC1C2CN(c3ccnc4ccc(F)cc34)CC21)C(O)c1ccc(Br)cc1 (stereo not drawn) [Compound 111, 2-(4-bromophenyl)-N-(3-(6-fluoroquinolin-4-yl)-3-azabicyclo[3.1.0]hexan-6-yl)-2-hydroxyacetamide]",> 5000
16,"O=C(Cc1ncc(Cl)cc1F)NC1C2CN(c3ccnc4ccc(F)cc34)CC21 (stereo not drawn) [Compound 112, 2-(5-chloro-3-fluoropyridin-2-yl)-N-(3-(6-fluoroquinolin-4-yl)-3-azabicyclo[3.1.0]hexan-6-yl)acetamide]",> 5000
17,"CCC(NC(=O)c1ccc(Cl)cc1)[C@H]1[C@@H]2C=CC[C@@H]21 (stereo partly drawn) [Compound 113, N-(1-((1R,5S,6R)-bicyclo[3.1.0]hex-2-en-6-yl)propyl)-4-chlorobenzamide]",200 to 2000

row,SMILES,IC50 [nM]
1,"CCC(NC(=O)c1ccc(Cl)cc1)[C@H]1[C@@H]2C[C@@H](N3C(=O)C(=O)c4ccccc43)C[C@@H]21 (stereo partly drawn) [Compound 114, 4-chloro-N-(1-((1R,3s,5S,6r)-3-(2,3-dioxoindolin-1-yl)bicyclo[3.1.0]hexan-6-yl)propyl)benzamide]",200 to 2000
2,"COc1ccc(C(=O)NC(C)[C@H]2[C@@H]3C[C@@H](Oc4ncnc5ccc(F)cc45)C[C@@H]32)cn1 (stereo partly drawn) [Compound 115, N-(1-((1R,3s,5S,6r)-3-((6-fluoroquinazolin-4-yl)oxy)bicyclo[3.1.0]hexan-6-yl)ethyl)-6-methoxynicotinamide]",< 200
3,"CCC(NC(=O)c1ccc(Cl)cc1)[C@H]1[C@@H]2C[C@@H](NS(=O)(=O)c3ccccc3)C[C@@H]21 (stereo partly drawn) [Compound 116, 4-chloro-N-(1-((1R,3s,5S,6r)-3-(phenylsulfonamido)bicyclo[3.1.0]hexan-6-yl)propyl)benzamide]",200 to 2000
4,"CCC(NC(=O)c1ccc(Cl)cc1)[C@H]1[C@@H]2C[C@@H](NC(=O)c3ccc4ccccc4n3)C[C@@H]21 (stereo partly drawn) [Compound 118, N-((1R,3s,5S,6r)-6-(1-(4-chlorobenzamido)propyl)bicyclo[3.1.0]hexan-3-yl)quinoline-2-carboxamide]",< 200
5,"CCC(NC(=O)c1ccc(Cl)cc1)[C@H]1[C@@H]2C[C@@H](N3C(=O)C(F)(F)c4ccccc43)C[C@@H]21 (stereo partly drawn) [Compound 119, 4-chloro-N-(1-((1R,3s,5S,6r)-3-(3,3-difluoro-2-oxoindolin-1-yl)bicyclo[3.1.0]hexan-6-yl)propyl)benzamide]",< 200
6,"CC(NC(=O)c1ccc(C#N)cc1)[C@H]1[C@@H]2C[C@@H](n3cnc4cc(F)ccc4c3=O)C[C@@H]21 (stereo partly drawn) [Compound 120, 4-cyano-N-(1-((1R,3s,5S,6r)-3-(7-fluoro-4-oxoquinazolin-3(4H)-yl)bicyclo[3.1.0]hexan-6-yl)ethyl)benzamide]",< 200
7,"CCC(NC(=O)c1ccc(Cl)cc1)[C@H]1[C@@H]2C[C@@H](N3C(=O)Cc4cc(F)ccc43)C[C@@H]21 (stereo partly drawn) [Compound 121, 4-chloro-N-(1-((1R,3s,5S,6r)-3-(5-fluoro-2-oxoindolin-1-yl)bicyclo[3.1.0]hexan-6-yl)propyl)benzamide]",< 200
8,"CCC(NC(=O)c1ccc(Cl)cc1)[C@H]1[C@@H]2C[C@@H](N3C(=O)CC(C)(C)C3=O)C[C@@H]21 (stereo partly drawn) [Compound 122, 4-chloro-N-(1-((1R,3s,5S,6r)-3-(3,3-dimethyl-2,5-dioxopyrrolidin-1-yl)bicyclo[3.1.0]hexan-6-yl)propyl)benzamide]",2000 to 5000
9,"CCC(NC(=O)c1ccc(Cl)cc1)[C@H]1[C@@H]2C[C@@H](Nc3ncnc4ccc(F)cc34)C[C@@H]21 (stereo partly drawn) [Compound 123, 4-chloro-N-(1-((1R,3s,5S,6r)-3-((6-fluoroquinazolin-4-yl)amino)bicyclo[3.1.0]hexan-6-yl)propyl)benzamide]",< 200
10,"COc1ccc(C(=O)NC(C)[C@H]2[C@@H]3C[C@@H](Oc4ncnc5cc(F)ccc45)C[C@@H]32)cn1 (stereo partly drawn) [Compound 124, N-(1-((1R,3s,5S,6r)-3-((7-fluoroquinazolin-4-yl)oxy)bicyclo[3.1.0]hexan-6-yl)ethyl)-6-methoxynicotinamide]",< 200
11,"CCC(NC(=O)c1ccc(Cl)cc1)[C@H]1[C@@H]2C[C@H](Oc3ccc4nccc(Cl)c4c3)C[C@@H]21 (stereo partly drawn) [Compound 127, 4-chloro-N-(1-((1R,3r,5S,6r)-3-((4-chloroquinolin-6-yl)oxy)bicyclo[3.1.0]hexan-6-yl)propyl)benzamide]",< 200
12,"COc1ccc(C(=O)NC(C)[C@H]2[C@@H]3C[C@@H](O)C[C@@H]32)cn1 (stereo partly drawn) [Compound 128, N-(1-((1R,3s,5S,6r)-3-hydroxybicyclo[3.1.0]hexan-6-yl)ethyl)-6-methoxynicotinamide]",> 5000
13,"CC(NC(=O)c1ccc(C#N)cc1)[C@H]1[C@@H]2C[C@@H](n3cc(C4CC4)nn3)C[C@@H]21 (stereo partly drawn) [Compound 129, 4-cyano-N-(1-((1R,3s,5S,6r)-3-(4-cyclopropyl-1H-1,2,3-triazol-1-yl)bicyclo[3.1.0]hexan-6-yl)ethyl)benzamide]",200 to 2000
14,"CCOC(=O)CC(NC(=O)c1ccc(Cl)cc1)[C@H]1[C@@H]2C[C@@H](Oc3ncnc4ccc(F)cc34)C[C@@H]21 (stereo partly drawn) [Compound 134, ethyl 3-(4-chlorobenzamido)-3-((1R,3s,5S,6r)-3-((6-fluoroquinazolin-4-yl)oxy)bicyclo[3.1.0]hexan-6-yl)propanoate]",< 200
15,"CC(NC(=O)c1ccc(C#N)cc1)[C@H]1[C@@H]2C[C@@H](Oc3cnnc4ccccc34)C[C@@H]21 (stereo partly drawn) [Compound 135, N-(1-((1R,3s,5S,6r)-3-(cinnolin-4-yloxy)bicyclo[3.1.0]hexan-6-yl)ethyl)-4-cyanobenzamide]",200 to 2000
16,"CC(NC(=O)c1ccc(C#N)cc1)[C@H]1[C@@H]2C[C@@H](n3ncc(=O)c4ccccc43)C[C@@H]21 (stereo partly drawn) [Compound 136, 4-cyano-N-(1-((1R,3s,5S,6r)-3-(4-oxocinnolin-1(4H)-yl)bicyclo[3.1.0]hexan-6-yl)ethyl)benzamide]",200 to 2000

# Source: patent US11173145B2, “Compounds useful as inhibitors of indoleamine 2,3-dioxygenase and/or tryptophan dioxygenase” (Board of Regents, The University of Texas System, priority 2017, dated 2021)
